Legend:
isolated mitochondria = experiment: In vitro mitochondria test: H2O2 formation of isolated mitochondria (amplexRed/horseradish peroxidase kinetic test); type: biochemical; conditions: for Quantity of H2O2 formed: 5 mM succinate alone = 100.0
From the text: A. The Reduced H2O2 Formation of Isolated Mitochondria as In Vitro Parameters for Endogenous Radical Stress:
Mitochondria reduce 95% of the oxygen to water.
Overproduction and/or reduced detoxification of superoxide anion and hydrogen peroxide leads to the development of oxidative stress. This is crucially implicated in neuronal cell death in all kinds of neurodegenerative diseases.
In the presence of the energy substrate succinate, isolated mitochondria produce H2O2, which results from the dismutation of superoxide anion. In the presence of amplexRed™ and horseradish peroxidase, the fluorogenic chromophor resorufin is formed, which is measured and quantified in a kinetic test. The quantity of H2O2 formed by the mitochondria can be increased by the addition of the quinone analogue duroquinone.

aconitase = conditions: mice, oral, 4 days, 2×1 mg/kg/d; brain mitochondria; control (0.9% saline) 100±8%; n=4
Experimental: Mice (C57BL6) were treated with pramipexole by oral route for 4 days in a dose of 2×1 mg/kg KG/d. The animals were then anaesthetised, killed, their brains were removed and the mitochondria (location of the enzyme and site of the radical formation) were isolated. Then the activity was determined by means of a coupled optical test.

Compound | Quantity of H2O2 formed (isolated mitochondria; 5 mM succinate + 3 μM duroquinone + 100 μM pramipexole) [%] | duroquinone-induced formation of H2O2 reduced to (isolated mitochondria; summary of Table 1) | aconitase activity (aconitase) [%] | Quantity of H2O2 formed (isolated mitochondria; 5 mM succinate + 3 μM duroquinone) [%]
CCCNC1CCc2nc(N)sc2C1 (stereo not shown) [pramipexole, 2-amino-4,5,6,7-tetrahydro-6-n-propylamino-benzothiazole] | 58.3 ± 24.6 | 50-60% | 153±16 | 
CC1=C(C)C(=O)C(C)=C(C)C1=O [duroquinone] |  |  |  | 152.2 ± 1.4

From patent US20040122068A1, “Pramipexole for the treatment of HIV dementia” (Boehringer Ingelheim Pharma GmbH & Co. KG, priority 2002, published 2004)
